Assay results published in article PMC8998827, “Ligandability Assessment of Human Glutathione Transferase M1-1 Using Pesticides as Chemical Probes” (International Journal of Molecular Sciences, 2022).

Each compound was assayed against T1, hGSTM1-1 (Homo sapiens, UniProt P09488) (assay: IC50 determination, concentration-response in CDNB-GSH assay). Settings: not given.
T1 sequence (P09488 1-218): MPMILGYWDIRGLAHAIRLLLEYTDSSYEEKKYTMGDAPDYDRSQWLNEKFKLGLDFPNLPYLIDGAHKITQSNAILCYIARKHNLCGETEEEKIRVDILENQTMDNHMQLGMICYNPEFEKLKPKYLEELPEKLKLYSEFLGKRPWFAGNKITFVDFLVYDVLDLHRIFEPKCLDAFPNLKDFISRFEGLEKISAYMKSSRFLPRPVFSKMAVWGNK
Type: biochemical
Parameters: made in house; host or cells: E. coli
Method: (§1) Reduced GST assays were performed by monitoring the formation of the conjugate of CDNB (1 mM) with GSH (2.5 mM) at 340 nm (ε = 9.6 mM^−1cm^−1) for 120 s according to a published method. One unit of enzyme activity is defined as the amount of enzyme that produces 1 μmol of product per minute under the assay conditions.
[…]. The IC50 values were determined using the program GraphPad Prism (GraphPad Software Inc., Version 7, San Diego, CA, USA).

Cc1nc(N(C)C)nc(OC(=O)N(C)C)c1C [Pirimicarb, pirimicarb] gave an IC50 of 17.5 ± 1.75 µM.

Same assay, conditions: 37 °C, pH 6.5; CDNB-GSH assay; read-out: IC50

CC1(C(=O)Nc2ccc(O)c(Cl)c2Cl)CCCCC1 [Fenhexamid, fenhexamid] and CCCCOCN(C(=O)CCl)c1c(CC)cccc1CC [Butachlor, butachlor] are within 1.5-fold of each other in IC50: 278 ± 14.5 µM for the first, 236 ± 4.5 µM for the second.

These compounds were tested against T1, hGSTM1-1 (assay: biochemical). Settings: not given.
Parameters: made in house; host or cells: E. coli
Method: as §1
Pesticide screening and inhibition potency evaluation towards hGSTM1-1 were carried out in the assay system described above in the presence of 25 μM pesticide diluted in acetone. During the assay, no measurable pesticide/GSH reaction was detected. The percentage of enzyme inhibition (I) was calculated using the following equation:%I = [(Ro − Ri)/Ro] × 100(3) where Ro is the unit of enzyme activity increase for the uninhibited reaction and Ri is the rate of increase for the inhibited reaction. Both Ri and Ro correspond to the same substrate concentration.

First: CNC(=O)Oc1cccc2ccccc12 [Carbaryl]
Second: CNC(=O)CSP(=O)(OC)OC [Omethoate]
The inhibition at 25 µM of the first is lower: 0% for the first, 3.21% for the second.

Going from COP(=S)(OC)Oc1c(Cl)cc(C)cc1Cl [Tolclofos-methyl] to N#C/N=C1\SCCN1Cc1ccc(Cl)nc1 [Thiacloprid], the inhibition at 25 µM rises from 9.32% to 10.7%.

CN/C(=N\[N+](=O)[O-])NCc1cnc(Cl)s1 [Clothianidin] was tested, and the inhibition at 25 µM was 0%.

Same assay, conditions: 25 μM pesticide; CDNB (1 mM)-GSH (2.5 mM) assay; mean of three assays, variation less than 5%

Going from COP(=O)(OC)OC=C(Cl)Cl [Dichloros] to Imidachlor, the “Inhibition (%)” value rises from 1.48% to 10.14%.

First: O=S1OC[C@@H]2[C@H](CO1)[C@@]1(Cl)C(Cl)=C(Cl)[C@]2(Cl)C1(Cl)Cl (stereo partly drawn) [alpha Endosulfan]
Second: CCC(C)(C)C(=O)OC1=C(c2ccc(Cl)cc2Cl)C(=O)OC12CCCCC2 [Spirodiclofen]
The “Inhibition (%)” value of the first is higher: 16.66% for the first, 10.20% for the second.

Going from C#CCOc1ccc(CCNC(=O)C(OCC#C)c2ccc(Cl)cc2)cc1OC (stereo not drawn) [Mandipropamid] to CCO[PH](=O)O [Fosetyl-Al], the “Inhibition (%)” value falls from 21.47% to 0.66%.

First: CO/C=C(/C(=O)OC)c1ccccc1COc1cccc(C(F)(F)F)n1 [Picoxystrobin]
Second: Cc1cc(C)c(C2=C(OC(=O)CC(C)(C)C)C3(CCCC3)OC2=O)c(C)c1 [Spiromesifen]
The “Inhibition (%)” value of the first is higher: 10.56% for the first, 1.27% for the second.

Compared with Spinosad, COC(=O)Nc1nc2ccccc2[nH]1 [Carbedazim] is higher in “Inhibition (%)” value: 0% for the first, 8.00% for the second.

Same assay, conditions: 25 μM pesticide; CDNB (1 mM)-GSH (2.5 mM) assay; mean of three assays, variation less than 5%; read-out: Inhibition (%)

First: CNC(=O)Oc1cccc2c1OC(C)(C)C2 [Carbofuran]
Second: COC(=O)Nc1cccc(OC(=O)Nc2cccc(C)c2)c1 [Phenmedipham]
The inhibition at 25 µM of the first is lower: 0% for the first, 16% for the second.

Going from CCC(C)(NC(=O)c1cc(Cl)c(C)c(Cl)c1)C(=O)CCl (stereo not drawn) [Zoxamide] to CN(C)C(=O)Nc1ccc(Cl)c(Cl)c1 [Diuron], the inhibition at 25 µM falls from 20% to 15%.

Going from Cl[C@H]1[C@H](Cl)[C@@H](Cl)[C@@H](Cl)[C@H](Cl)[C@H]1Cl [Lindane] to O=S1OCC2C(CO1)C1(Cl)C(Cl)=C(Cl)C2(Cl)C1(Cl)Cl (stereo not drawn) [Endosulfan], the inhibition at 25 µM rises from 13% to 14.7%.

Compared with CCOCN(C(=O)CCl)c1c(C)cccc1CC [Acetochlor, acetochlor], CCc1cccc(CC)c1N(COC)C(=O)CCl [Alachlor, alachlor] is higher in inhibition at 25 µM: 13.8% for the first, 32% for the second.

First: CC1(C(=O)Nc2ccc(O)c(Cl)c2Cl)CCCCC1 [Fenhexamid, fenhexamid]
Second: O=C(NC(=O)c1c(F)cccc1F)Nc1cc(Cl)c(F)c(Cl)c1F [Teflubenzuron]
The inhibition at 25 µM of the first is higher: 35.3% for the first, 11.2% for the second.

Going from CCOC(=O)CC(SP(=S)(OC)OC)C(=O)OCC (stereo not drawn) [Malathion, malathion] to COCC(=O)N(c1c(C)cccc1C)C(C)C(=O)OC (stereo not drawn) [Metalaxyl], the inhibition at 25 µM rises from 12.7% to 19.8%.

First: CON=C(C(=O)OC)c1ccccc1CON=C(C)c1cccc(C(F)(F)F)c1 [Trifloxystrobin]
Second: CO/N=C(/C(=O)OC)c1ccccc1COc1ccccc1C [Kresoxim-methyl]
The inhibition at 25 µM of the first is lower: 2.88% for the first, 14.5% for the second.

Going from CCNc1nc(Cl)nc(NC(C)(C)C)n1 [Terbuthylazine] to CCNc1nc(Cl)nc(NC(C)C)n1 [Atrazine], the inhibition at 25 µM rises from 12% to 28.7%.

Going from CCc1cccc(C)c1N(C(=O)CCl)C(C)COC (stereo not drawn) [Metolachlor] to CCCCOCN(C(=O)CCl)c1c(CC)cccc1CC [Butachlor, butachlor], the inhibition at 25 µM rises from 9.2% to 35.3%.

Compared with CCOP(=S)(OCC)Oc1nc(Cl)c(Cl)cc1Cl [Chlorpyrifos], CCOC(=O)OC1=C(c2cc(C)ccc2C)C(=O)N[C@]12CC[C@@H](OC)CC2 [Spirotetramat] is higher in inhibition at 25 µM: 0% for the first, 29.3% for the second.

First: C=CC1(C)OC(=O)N(c2cc(Cl)cc(Cl)c2)C1=O (stereo not drawn) [Vinclozolin]
Second: CC(C)NC(=O)N1CC(=O)N(c2cc(Cl)cc(Cl)c2)C1=O [Iprodione]
The inhibition at 25 µM of the first is lower: 14.3% for the first, 19.5% for the second.

First: OC(Cc1ccccc1Cl)(Cn1nc[nH]c1=S)C1(Cl)CC1 (stereo not drawn) [Prothioconazole]
Second: Cc1cccc(C)c1N(Cn1cccn1)C(=O)CCl [Metazachlor, metazachlor]
The inhibition at 25 µM of the first is higher: 26.5% for the first, 19.7% for the second.

CC(C)(C)C(O)C(Oc1ccc(Cl)cc1)n1cncn1 (stereo not drawn) [Triadimenol] and CC(C)C(C(=O)OC(C#N)c1cccc(Oc2ccccc2)c1)c1ccc(Cl)cc1 (stereo not drawn) [Fenvalerate] are the same in inhibition at 25 µM: 0% for the first, 0% for the second.

First: Cc1cc(C)nc(Nc2ccccc2)n1 [Pyrimethanil]
Second: CSC1=N[C@@](C)(c2ccccc2)C(=O)N1Nc1ccccc1 [Fenamidone]
The inhibition at 25 µM of the first is higher: 7.49% for the first, 0% for the second.

CC1(C)C(C=C(Cl)Cl)C1C(=O)OC(C#N)c1cccc(Oc2ccccc2)c1 (stereo not drawn) [Alpha cypermethrin] and CC1(C)[C@H](C(=O)O[C@H](C#N)c2cccc(Oc3ccccc3)c2)[C@@H]1C=C(Br)Br [Deltamethrin] are the same in inhibition at 25 µM: 0% for the first, 0% for the second.

First: CNC(=O)ON=C(C)SC [Methomyl]
Second: CCOC(=O)Nc1cccc(OC(=O)Nc2ccccc2)c1 [Desmedipham]
The inhibition at 25 µM of the first is higher: 20% for the first, 0% for the second.

Going from CC1(C)[C@H](C(=O)O[C@H](C#N)c2cccc(Oc3ccccc3)c2)[C@@H]1/C=C(\Cl)C(F)(F)F (racemic) [Lambda-Cyhalothrin] to CC1(C)C(C=C(Cl)Cl)C1C(=O)OCc1cccc(Oc2ccccc2)c1 (stereo not drawn) [Permethrin], the inhibition at 25 µM rises from 0% to 11.2%.

Going from O=[N+]([O-])NC1=NCCN1Cc1ccc(Cl)nc1 [Imidacloprid] to O=C(Nc1ccccc1-c1ccc(Cl)cc1)c1cccnc1Cl [Boscalid], the inhibition at 25 µM rises from 0% to 20.4%.

Compared with O=C(NC(=O)c1c(F)cccc1F)Nc1ccc(Cl)cc1 [Diflubenzuron], O=C(NC(=O)c1ccccc1Cl)Nc1ccc(OC(F)(F)F)cc1 [Triflumuron] is higher in inhibition at 25 µM: 0% for the first, 22.7% for the second.

Compared with CC(C)N(C(=O)CCl)c1ccccc1 [Propachlor, propachlor], CO/N=C(/C1=NOCCO1)c1ccccc1Oc1ncnc(Oc2ccccc2Cl)c1F [Fluoxastrobin] is higher in inhibition at 25 µM: 11.2% for the first, 18.5% for the second.

Compared with O=[N+]([O-])c1ccc(Oc2ccc(C(F)(F)F)cc2[N+](=O)[O-])cc1 [Fluorodifen], Cc1nc(N(C)C)nc(OC(=O)N(C)C)c1C [Pirimicarb, pirimicarb] is higher in inhibition at 25 µM: 16.7% for the first, 52.3% for the second.

The compounds below were run against T1, hGSTM1-1 (assay: Kinetic inhibition study with pirimicarb (Lineweaver-Burk and secondary plots)). Settings: CDNB as variable substrate; 37 °C, pH 6.5; 1/Vmax app versus [Pirimicarb].
Type: biochemical
Parameters: made in house; host or cells: E. coli
Method: Initial velocities for the catalyzed reaction of the isoenzyme hGSTM1-1 with GSH as a variable substrate were performed at 37 °C in a total volume of 1 mL mixture containing 0.75 μg of the isoenzyme GSTM1-1, 0.1 M potassium phosphate buffer (pH 6.5), 1 mM CDNB and different concentrations of GSH in the range of 0.0175–3.75 mM in the presence of different concentrations of the insecticide pirimicarb (0–40 μM). With CDNB as a variable substrate, the reaction mixture total volume (1 mL) contained 0.75 μg of the isoenzyme GSTM1-1, 0.1 M potassium phosphate buffer (pH 6.5), 1 mM GSH and CDNB in the concentration range of 0.015–1.5 mM in the presence of different concentrations of pirimicarb (0–30 μM). The kinetic parameters were determined using the computer program GraphPad Prism 7.

With Cc1nc(N(C)C)nc(OC(=O)N(C)C)c1C [Pirimicarb, pirimicarb] the “Ki' (binding to enzyme-CDNB complex)” value was 44.7 ± 1.14 µM.

Same assay, conditions: GSH as variable substrate

Cc1nc(N(C)C)nc(OC(=O)N(C)C)c1C [Pirimicarb, pirimicarb] was tested, and the Inhibition pattern was “mixed-type inhibition”.

Same assay, conditions: GSH as variable substrate; 37 °C, pH 6.5

Cc1nc(N(C)C)nc(OC(=O)N(C)C)c1C [Pirimicarb, pirimicarb] was tested, and the “Ki' (binding to enzyme-GSH complex)” value was 35.97 ± 2.57 µM.

Same assay, conditions: Ki (binding to free enzyme), CDNB as variable substrate; 37 °C, pH 6.5; Slope versus [Pirimicarb]

In the case of Cc1nc(N(C)C)nc(OC(=O)N(C)C)c1C [Pirimicarb, pirimicarb], the Ki is reported as 37.7 ± 1.03 µM.

Same assay, conditions: Ki (binding to free enzyme), GSH as variable substrate; 37 °C, pH 6.5

With Cc1nc(N(C)C)nc(OC(=O)N(C)C)c1C [Pirimicarb, pirimicarb] the Ki was 24.5 ± 2.86 µM.

Same assay, conditions: towards CDNB

For Cc1nc(N(C)C)nc(OC(=O)N(C)C)c1C [Pirimicarb, pirimicarb], the Inhibition pattern was “mixed-type inhibition”.

Biological target: T1, hGSTM1-1
Assay: biochemical
Settings: not given
Remark: another data set of the same source
Description: Furthermore, the catalytic activity of hGSTM1-1 cannot be regained by extensive dialysis or gel filtration on Sephadex G-25. […] The Kapp calculated by inactivation experiments is in good agreement to that determined by kinetic inhibition analysis.
The rate of inactivation was followed by periodically removing samples for assays of enzymatic activity.

In the case of Cc1nc(N(C)C)nc(OC(=O)N(C)C)c1C [Pirimicarb, pirimicarb], the Kd is reported as 15.5 ± 1.2 µM.

Same assay, conditions: pH 7.4

In the case of N[C@@H](CCC(=O)N[C@@H](CSCc1ccc([N+](=O)[O-])cc1)C(=O)NCC(=O)O)C(=O)O [S-nitrobenzyl-GSH, S-nitrobenzyl-glutathione], the “Effect on inactivation of hGSTM1-1 by GS-ESF” value is reported as “diminish the observed rate of enzyme inactivation”.
For Cc1nc(N(C)C)nc(OC(=O)N(C)C)c1C [Pirimicarb, pirimicarb], the “Effect on inactivation of hGSTM1-1 by GS-ESF” value was “diminish the observed rate of enzyme inactivation”.
